{"source": "ChEMBL document CHEMBL3608284", "about": "“C4 phenyl aporphines with selective h5-HT(2B) receptor affinity” (Bioorg Med Chem Lett, 2015)", "key": {"[1]": {"target": "T1, 5-hydroxytryptamine receptor 1A (Homo sapiens) (UniProt P08908)", "T1 sequence (whole entry)": "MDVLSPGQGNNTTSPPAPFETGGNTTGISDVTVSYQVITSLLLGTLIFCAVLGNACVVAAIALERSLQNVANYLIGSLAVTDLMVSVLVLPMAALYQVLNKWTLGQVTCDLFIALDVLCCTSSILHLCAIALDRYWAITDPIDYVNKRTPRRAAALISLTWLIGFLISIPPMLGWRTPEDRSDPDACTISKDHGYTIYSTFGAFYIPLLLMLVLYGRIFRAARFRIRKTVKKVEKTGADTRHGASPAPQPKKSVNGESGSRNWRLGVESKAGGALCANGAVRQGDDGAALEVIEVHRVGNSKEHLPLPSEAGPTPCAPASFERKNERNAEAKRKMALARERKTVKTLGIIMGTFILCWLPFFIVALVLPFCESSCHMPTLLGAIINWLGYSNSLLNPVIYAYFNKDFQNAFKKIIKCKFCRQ", "test": "Displacement of [3H]-8-OH-DPAT from 5HT1A receptor (unknown origin) at 10 uM"}, "[2]": {"target": "5-hydroxytryptamine receptor 1B (Homo sapiens, UniProt P28222)", "sequence (P28222 whole entry)": "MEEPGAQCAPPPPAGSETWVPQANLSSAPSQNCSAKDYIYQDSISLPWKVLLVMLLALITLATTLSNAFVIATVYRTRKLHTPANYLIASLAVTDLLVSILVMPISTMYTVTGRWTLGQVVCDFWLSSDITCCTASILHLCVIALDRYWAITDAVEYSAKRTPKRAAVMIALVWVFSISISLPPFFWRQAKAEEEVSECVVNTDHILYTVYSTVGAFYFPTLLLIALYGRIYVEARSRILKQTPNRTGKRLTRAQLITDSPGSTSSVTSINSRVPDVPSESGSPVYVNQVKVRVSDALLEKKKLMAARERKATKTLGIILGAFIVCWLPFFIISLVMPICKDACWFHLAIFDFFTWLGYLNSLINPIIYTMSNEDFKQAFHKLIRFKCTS", "test": "Displacement of [3H]GR125743 from 5HT1B receptor (unknown origin) at 10 uM"}, "[3]": {"target": "5-hydroxytryptamine receptor 1D (Homo sapiens) (UniProt P28221)", "sequence (P28221 whole entry)": "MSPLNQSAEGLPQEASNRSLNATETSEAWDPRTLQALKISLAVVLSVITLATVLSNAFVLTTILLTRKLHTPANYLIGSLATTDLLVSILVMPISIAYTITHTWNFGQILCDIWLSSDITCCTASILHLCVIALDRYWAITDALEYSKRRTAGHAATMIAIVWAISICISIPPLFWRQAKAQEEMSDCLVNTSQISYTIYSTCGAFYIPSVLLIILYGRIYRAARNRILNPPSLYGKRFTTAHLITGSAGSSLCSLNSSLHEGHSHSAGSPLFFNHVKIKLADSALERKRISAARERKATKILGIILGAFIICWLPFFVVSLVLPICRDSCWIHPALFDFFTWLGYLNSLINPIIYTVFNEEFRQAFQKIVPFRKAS", "test": "Displacement of [3H]GR125743 from 5HT1D receptor (unknown origin) at 10 uM"}, "[4]": {"target": "5-hydroxytryptamine receptor 1E (Homo sapiens) (UniProt P28566)", "sequence (P28566 whole entry)": "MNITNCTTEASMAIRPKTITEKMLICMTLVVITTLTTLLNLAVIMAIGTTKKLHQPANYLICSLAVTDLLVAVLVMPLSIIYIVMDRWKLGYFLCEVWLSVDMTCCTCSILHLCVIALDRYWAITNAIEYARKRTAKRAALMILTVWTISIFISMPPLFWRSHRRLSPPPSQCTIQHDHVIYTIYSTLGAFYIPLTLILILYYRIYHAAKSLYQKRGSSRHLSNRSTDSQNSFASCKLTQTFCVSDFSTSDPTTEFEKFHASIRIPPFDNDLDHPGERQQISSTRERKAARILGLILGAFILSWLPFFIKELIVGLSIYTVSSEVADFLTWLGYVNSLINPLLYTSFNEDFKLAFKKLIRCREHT", "test": "Displacement of [3H]5HT from 5HT1E receptor (unknown origin) at 10 uM"}, "[5]": {"target": "5-hydroxytryptamine receptor 2A (Homo sapiens) (UniProt P28223)", "sequence (P28223 whole entry)": "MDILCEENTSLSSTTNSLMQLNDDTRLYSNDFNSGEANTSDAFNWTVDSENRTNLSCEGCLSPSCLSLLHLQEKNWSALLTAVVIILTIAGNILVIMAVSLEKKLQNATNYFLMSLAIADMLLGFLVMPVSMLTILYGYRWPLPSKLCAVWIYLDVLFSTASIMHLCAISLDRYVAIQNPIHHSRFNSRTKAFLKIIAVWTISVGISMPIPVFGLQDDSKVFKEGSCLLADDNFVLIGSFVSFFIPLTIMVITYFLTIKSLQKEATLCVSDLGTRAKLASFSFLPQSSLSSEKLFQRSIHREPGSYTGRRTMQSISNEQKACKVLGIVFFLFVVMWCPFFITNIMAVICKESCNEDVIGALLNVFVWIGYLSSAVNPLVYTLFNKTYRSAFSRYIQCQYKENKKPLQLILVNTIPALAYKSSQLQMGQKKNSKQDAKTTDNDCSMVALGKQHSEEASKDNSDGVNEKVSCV", "test": "Displacement of [3H]ketanserin from 5HT2A receptor (unknown origin) at 10 uM"}, "[6]": {"target": "5-hydroxytryptamine receptor 2B (Homo sapiens, UniProt P41595)", "sequence (P41595 whole entry)": "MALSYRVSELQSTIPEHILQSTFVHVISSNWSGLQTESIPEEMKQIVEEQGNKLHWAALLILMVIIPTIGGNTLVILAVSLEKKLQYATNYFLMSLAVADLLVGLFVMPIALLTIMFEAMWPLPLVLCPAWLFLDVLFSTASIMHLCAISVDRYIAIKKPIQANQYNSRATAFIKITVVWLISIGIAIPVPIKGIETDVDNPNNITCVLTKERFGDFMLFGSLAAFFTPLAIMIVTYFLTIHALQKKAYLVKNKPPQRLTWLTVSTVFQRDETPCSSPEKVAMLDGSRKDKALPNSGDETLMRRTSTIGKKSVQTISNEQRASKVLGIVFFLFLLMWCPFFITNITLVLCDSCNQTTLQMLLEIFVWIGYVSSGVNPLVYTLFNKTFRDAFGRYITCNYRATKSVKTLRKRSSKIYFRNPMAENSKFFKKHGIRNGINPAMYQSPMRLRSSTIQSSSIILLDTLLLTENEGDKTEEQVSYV", "test": "Displacement of [3H]LSD from 5HT2B receptor (unknown origin) at 10 uM"}, "[7]": {"target": "T2, 5-hydroxytryptamine receptor 3A (Homo sapiens) (UniProt P46098)", "T2 sequence (whole entry)": "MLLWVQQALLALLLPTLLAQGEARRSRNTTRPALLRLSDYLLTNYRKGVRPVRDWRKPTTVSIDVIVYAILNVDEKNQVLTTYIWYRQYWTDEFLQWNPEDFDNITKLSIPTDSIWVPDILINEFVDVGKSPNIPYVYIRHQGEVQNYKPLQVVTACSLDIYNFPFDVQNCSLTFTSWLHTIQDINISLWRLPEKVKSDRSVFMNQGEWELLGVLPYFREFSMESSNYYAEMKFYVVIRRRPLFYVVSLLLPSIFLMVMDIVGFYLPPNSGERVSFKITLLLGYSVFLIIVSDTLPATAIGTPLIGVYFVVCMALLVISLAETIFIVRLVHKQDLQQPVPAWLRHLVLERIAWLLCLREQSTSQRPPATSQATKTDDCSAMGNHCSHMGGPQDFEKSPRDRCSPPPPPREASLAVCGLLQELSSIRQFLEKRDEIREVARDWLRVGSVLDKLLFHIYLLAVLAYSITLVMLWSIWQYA", "test": "Displacement of [3H]LY278584 from 5HT3 receptor (unknown origin) at 10 uM"}, "[8]": {"species": "Rattus norvegicus", "test": "Binding affinity to benzodiazepine receptor in rat brain", "type": "tissue-based", "details": "concentration not given here"}, "[9]": {"target": "Sodium-dependent dopamine transporter (Homo sapiens) (UniProt Q01959)", "sequence (Q01959 whole entry)": "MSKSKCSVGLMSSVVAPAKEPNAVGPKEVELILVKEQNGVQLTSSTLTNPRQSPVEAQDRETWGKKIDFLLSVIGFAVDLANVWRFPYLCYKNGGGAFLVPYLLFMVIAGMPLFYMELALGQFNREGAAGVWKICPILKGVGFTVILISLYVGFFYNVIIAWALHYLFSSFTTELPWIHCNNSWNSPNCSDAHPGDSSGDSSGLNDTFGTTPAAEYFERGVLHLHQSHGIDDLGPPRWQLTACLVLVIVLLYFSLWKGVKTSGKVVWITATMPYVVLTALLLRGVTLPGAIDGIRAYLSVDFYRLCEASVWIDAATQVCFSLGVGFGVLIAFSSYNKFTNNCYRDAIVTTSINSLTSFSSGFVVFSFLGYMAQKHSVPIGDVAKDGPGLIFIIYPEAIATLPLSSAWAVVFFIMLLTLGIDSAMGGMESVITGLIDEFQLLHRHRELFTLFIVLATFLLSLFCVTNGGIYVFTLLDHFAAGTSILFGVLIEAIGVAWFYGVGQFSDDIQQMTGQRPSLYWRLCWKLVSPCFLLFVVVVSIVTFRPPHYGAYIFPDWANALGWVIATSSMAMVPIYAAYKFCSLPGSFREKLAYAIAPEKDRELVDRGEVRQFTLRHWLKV", "test": "Binding affinity to DAT (unknown origin) at 10 uM"}, "[10]": {"target": "Glutamate NMDA receptor; GRIN1/GRIN2A (Homo sapiens) (UniProt Q05586+Q12879)", "test": "Binding affinity to NMDA receptor (unknown origin) at 10 uM", "type": "protein-complex assay"}, "[11]": {"tested_on": "Sigma 2 receptor", "test": "Binding affinity to sigma-2 receptor (unknown origin) at 10 uM", "details": "Homo sapiens"}, "[12]": {"target": "Alpha-2A adrenergic receptor (Homo sapiens, UniProt P08913)", "sequence (P08913 whole entry)": "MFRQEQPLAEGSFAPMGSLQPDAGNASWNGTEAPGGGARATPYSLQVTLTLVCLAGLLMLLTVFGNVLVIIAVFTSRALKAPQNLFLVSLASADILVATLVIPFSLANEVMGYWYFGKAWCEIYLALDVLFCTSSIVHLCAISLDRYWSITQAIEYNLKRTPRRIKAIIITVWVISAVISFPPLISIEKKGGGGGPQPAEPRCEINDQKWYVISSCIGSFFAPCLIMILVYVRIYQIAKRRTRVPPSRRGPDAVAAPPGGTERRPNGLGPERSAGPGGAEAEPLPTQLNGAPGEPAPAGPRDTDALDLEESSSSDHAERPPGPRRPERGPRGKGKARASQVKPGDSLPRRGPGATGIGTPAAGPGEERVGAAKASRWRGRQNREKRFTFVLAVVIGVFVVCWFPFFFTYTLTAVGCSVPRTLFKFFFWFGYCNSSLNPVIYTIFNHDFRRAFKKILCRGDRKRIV", "test": "Binding affinity to alpha2A adrenoceptor (unknown origin)"}, "[13]": {"target": "Alpha-2C adrenergic receptor (Homo sapiens, UniProt P18825)", "sequence (P18825 whole entry)": "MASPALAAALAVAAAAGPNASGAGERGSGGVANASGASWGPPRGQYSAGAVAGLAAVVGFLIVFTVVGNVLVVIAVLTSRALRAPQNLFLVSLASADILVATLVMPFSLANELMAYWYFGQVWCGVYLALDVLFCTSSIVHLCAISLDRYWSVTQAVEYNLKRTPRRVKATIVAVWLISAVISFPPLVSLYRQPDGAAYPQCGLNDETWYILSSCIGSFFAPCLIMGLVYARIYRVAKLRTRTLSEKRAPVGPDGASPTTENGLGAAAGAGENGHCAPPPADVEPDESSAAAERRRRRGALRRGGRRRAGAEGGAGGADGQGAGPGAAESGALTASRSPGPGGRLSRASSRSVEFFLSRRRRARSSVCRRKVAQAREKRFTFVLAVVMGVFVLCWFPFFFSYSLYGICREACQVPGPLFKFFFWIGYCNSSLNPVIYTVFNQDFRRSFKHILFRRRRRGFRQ", "test": "Binding affinity to alpha2C adrenoceptor (unknown origin)"}, "[14]": {"target": "Translocator protein (Homo sapiens, UniProt P30536)", "sequence (P30536 whole entry)": "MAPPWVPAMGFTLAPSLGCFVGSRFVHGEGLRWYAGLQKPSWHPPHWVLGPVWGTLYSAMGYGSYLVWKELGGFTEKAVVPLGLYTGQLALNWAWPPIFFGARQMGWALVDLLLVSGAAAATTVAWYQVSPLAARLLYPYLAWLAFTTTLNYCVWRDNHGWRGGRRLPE", "test": "Binding affinity to PBR (unknown origin)"}}, "note": "pKi: −log10 of the molar value.", "data": [{"compound": "COc1cc2c3c(c1OC)-c1cc4c(cc1CC3N(C)CC2c1ccccc1)OCO4", "note": "(centres undefined)", "values": [{"measurement": "inhibition", "setting": "[1]", "result": 5.5, "unit": "%"}, {"measurement": "inhibition", "setting": "[2]", "result": 22.6, "unit": "%"}, {"measurement": "inhibition", "setting": "[3]", "result": 34.5, "unit": "%"}, {"measurement": "inhibition", "setting": "[4]", "result": 10.1, "unit": "%"}, {"measurement": "inhibition", "setting": "[5]", "result": 33.5, "unit": "%"}, {"measurement": "inhibition", "setting": "[6]", "result": 92.2, "unit": "%"}, {"measurement": "inhibition", "setting": "[7]", "result": 8, "unit": "%"}, {"measurement": "inhibition", "setting": "[8]", "result": "< 50", "unit": "%"}, {"measurement": "inhibition", "setting": "[9]", "result": "< 50", "unit": "%"}, {"measurement": "inhibition", "setting": "[10]", "result": "< 50", "unit": "%"}, {"measurement": "inhibition", "setting": "[11]", "result": "< 50", "unit": "%"}, {"measurement": "pKi", "setting": "[12]", "result": 6.14}, {"measurement": "pKi", "setting": "[13]", "result": 6.36}, {"measurement": "pKi", "setting": "[14]", "result": 5.54}]}]}
